Test results: US7666900B2, “ABCA1 stabilizer” (Hykes Laboratories LLC, priority 2004, dated 2010)

How the values were obtained:
[1] = Toxicity test, oral administration to mice for one week; format: in vivo
Description: Probucol spiroquinone, probucol diphenoquinone, and probucol bisphenol were orally administered to mice for one week.

[2] = Increase of blood HDL level (rabbit), intravenous microemulsion; format: in vivo; settings: i.v. microemulsion once a day for 7 days, control = 100
Method: The microemulsion (0.5 to 10 mL/body) was administered to each group of 4 rabbits via the ear vein once a day for 7 days. To a control group, a microemulsion containing no test drug was administered in the same manner. Blood was collected in the presence of heparin sodium from the ear vein of each rabbit at 3 hours after the last administration. The blood was centrifuged at 2000 g for 10 minutes to separate plasma. The plasma was applied to electrophoresis using Paragon Electrophoresis System (Beckman Coulter, Inc.) to separate plasma lipoprotein, followed by lipid staining. The images on the gel after the lipid staining were examined to covert the plasma HDL level of each rabbit into a digitized form for the evaluation. In reference to the content amount of each compound in the microemulsion, each blood compound level assumed just after the intravenous administration thereof was set as the dose of each compound.

THP-1 cells = assay: apoAI-dependent HDL-generating reaction in THP-1 cells (cholesterol and phospholipid taken out into the medium); format: cell-based, human; settings: for Release of HDL Cholesterol (Relative Ratio %) / Release of Phospholipid (Relative Ratio %): apoAI-dependent, non-treated cells = 100
Method: (§1) THP-1 cells (human leukemia cells: American Type Culture Collection) were cultured for 72 hours in a 10% FBS-RPMI1640 medium (Iwaki Glass Co., Ltd.) under the presence of PMA (phorbol myristate acetate, 3.2×10^−7 M: Wako Pure Chemical Industries, Ltd.) to obtain differentiated macrophages. Probucol spiroquinone (Synthesis Example 1), probucol diphenoquinone (Synthesis Example 2), or probucol bisphenol (Synthesis Example 3) was added to a medium after being incorporated into acetyl-LDL according to a method of Tsujita, et al. [BIOCHEMISTRY, 35, 13011-13020 (1996)]. The cells were cultured in this medium for 48 hours, and then further cultured for 24 hours in the presence or absence of apoAI. The expression levels of intracellular ABCA1 were assayed according to a method disclosed herein below.
The cultured cells obtained in the same manner as in Assay Example 1 were examined for cholesterol and phospholipid taken out into the medium by the apoAI-dependent HDL-generating reaction, according to a method of Arakawa, et al. [J. LIPID RES., 41, 1952-1962, (2000)]. The results of the drug-treated cells were compared with that of non-treated cells (control). The resulting data were converted into digitized forms as in Assay Example 1, and the relative ratios of the taken out level in the drug-treated cells to that in the non-treated cells were calculated to evaluate the HDL-generating reaction accelerated by the assayed compounds. For comparison, the HDL-generating reaction accelerated by probucol (Wako Pure Chemical Industries, Ltd.) was examined in the same manner as aforementioned.

ABCA1 = ABCA1 expression in THP-1 cells (immunoblotting of total membrane fraction); format: cell-based, human; settings: for ABCA1 Expression Level (Relative Ratio %): PMA-differentiated THP-1 macrophages, compound incorporated into acetyl-LDL, 48 h then 24 h with or without apoAI, non-treated cells = 100; for intracellular ABCA1 expression level compared with non-treated cells (in words): THP-1 cells
Method: as §1
The agent-treated cells and non-treated cells were hypotonically disrupted in 5 mM Tris-HCl (pH 8.5), and then centrifuged (650 g for 5 minutes) to precipitate nuclear fractions. The supernatant was centrifuged at 105,000 g for 30 minutes to collect a total membrane fraction. The total membrane was dissolved in a solution containing 0.9 M urea, 0.2% Triton X-100, and 0.1% dithiothreitol, followed by addition of 10% lithium dodecyl sulfate solution at a volume ratio of 1/4. The resultant was subjected to electrophoretic separation using 10% SDS-7% polyacrylamide gel. The separated proteins were transferred and fixed onto PVDF membrane (Bio-Rad), and then subjected to immunoblotting with anti-human ABCA1 rabbit antibody (self-purified by an ordinary technique) to examine expressed ABCA1 protein levels. The obtained bands of the protein were read for density and size with Scion Image (image analysis software: Scion) to convert the results into digitized forms. The relative ratio of the ABCA1 expression level of the drug-treated cells to that of the non-treated cells was calculated to evaluate the ABCA1-expression activity of the assayed compounds.

[3] = Increase of blood HDL level (mouse), oral administration; format: in vivo; settings: for Plasma HDL Level (Relative Ratio %): 3 hours after last administration, control = 100
Method: Probucol spiroquinone (Synthesis Example 1: 50 mg/kg or 150 mg/kg) or probucol diphenoquinone (Synthesis Example 2: 50 mg/kg or 150 mg/kg) suspended in a 0.5% carboxymethylcellulose solution was orally administered to each group of 3 or 4 mice once a day for 7 days. To a control group, only the 0.5% carboxymethylcellulose solution was administered in the same manner. Animals were subjected to laparotomy under ether anesthesia at 3 hours after the last administration, and blood was collected in the presence of heparin sodium from the heart of each mouse. The blood was centrifuged at 2000 g for 10 minutes to separate plasma. The plasma was applied to electrophoresis using Paragon Electrophoresis System (Beckman Coulter, Inc.) to separate plasma lipoprotein, followed by lipid staining. The images on the gel after the lipid staining were examined to covert the plasma HDL level of each mouse into a digitized form for the evaluation.

[4] = dose as assumed blood level 0.14 μM
[5] = dose as assumed blood level 0.57 μM
[6] = 50 mg/kg orally once a day for 7 days
[7] = 150 mg/kg orally once a day for 7 days

SMILES	findings in toxicity test [1]	Plasma HDL Level (Relative Ratio %) [2, 4]	Plasma HDL Level (Relative Ratio %) [2, 5]	Release of HDL Cholesterol (Relative Ratio %) (THP-1 cells)	Release of Phospholipid (Relative Ratio %) (THP-1 cells)	ABCA1 Expression Level (Relative Ratio %) (ABCA1)	intracellular ABCA1 expression level compared with non-treated cells (in words) (ABCA1)	Plasma HDL Level (Relative Ratio %) [3, 6]	Plasma HDL Level (Relative Ratio %) [3, 7]	Plasma HDL Level (Relative Ratio %) ([2]; dose as assumed blood level 0.16 μM)	Plasma HDL Level (Relative Ratio %) ([2]; dose as assumed blood level 0.31 μM)	plasma HDL level increase compared with control group ([3]; 50 or 150 mg/kg orally once a day for 7 days)	apoAI-dependently taken out HDL cholesterol (in words) (THP-1 cells)	level of taken out phospholipid as fraction of non-treated cells (THP-1 cells)
CC(C)(C)c1cc(-c2cc(C(C)(C)C)c(O)c(C(C)(C)C)c2)cc(C(C)(C)C)c1O [Probucol bisphenol, 4,4′-dihydroxy-3,5,3′,5′-tetra-t-butyldiphenyl]	no abnormal findings were observed	145%	135%	137%	144%	153%	remarkably elevated							
CC(C)(C)C1=CC(=C2C=C(C(C)(C)C)C(=O)C(C(C)(C)C)=C2)C=C(C(C)(C)C)C1=O [Probucol diphenoquinone, 3,5,3′,5′-tetra-t-butyl-4,4′-diphenoquinone]	no abnormal findings were observed			159%	200%	173%	remarkably elevated	113%	180%	148%	130%			
CC1(C)SC2(C=C(C(C)(C)C)C(=O)C(C(C)(C)C)=C2)C2(C=C(C(C)(C)C)C(=O)C(C(C)(C)C)=C2)S1 [Probucol spiroquinone, 2,4,9,11-tetrakis(1,1-dimethylethyl)-14,14-dimethyl-13,15-dithiadispiro[5.0.5.3]pentadeca-1,4,8,11-tetraene-3,10-dione]	no abnormal findings were observed	157%	194%	148%	151%	191%	remarkably elevated	120%	124%			about 1.2 times		
CC(C)(Sc1cc(C(C)(C)C)c(O)c(C(C)(C)C)c1)Sc1cc(C(C)(C)C)c(O)c(C(C)(C)C)c1 [Probucol, 4,4′-(isopropylidenedithio)bis(2,6-di-t-butylphenol), reference compound]				0%	34%								no apoAI-dependently taken out HDL cholesterol was observed	less than ⅓
